According to paper PMC10609061, “Detection of Various Traditional Chinese Medicinal Metabolites as Angiotensin-Converting Enzyme Inhibitors: Molecular Docking, Activity Testing, and Surface Plasmon Resonance Approaches” (Molecules, 2023):
pKd: −log10 of the molar value.

Legend:
[1] = tested on: ACE1 (angiotensin-converting enzyme); assay: ACE inhibition measurement with ACE1 activity test kit (fluorescence); format: biochemical; conditions: for Inhibition rate (%) of ACE1 activity, relative to captopril taken as 100%: TCM metabolite at 25 uM
[2] = target: T1, recombinant soluble C domain of ACE1 (sACE1) (Homo sapiens, UniProt P12821); assay: SPR determination of affinity between TCM metabolites and immobilized sACE1 (Biacore T200, CM5 chip); format: binding; conditions: for Binding to sACE1 by SPR (in words): SPR assay; for pKd: SPR, sACE1 on CM5 chip, 0.39-50.0 µM metabolite, 25 °C, read-out: KD (equilibrium dissociation constant)
T1 construct: The cDNA coding for the soluble C domain of ACE1 (Ile640-Ala1231) was obtained by PCR amplification; HSA signal peptide (N); made in house; host or cells: HEK293 (transient transfection, protein purified from the culture supernatant)
T1 sequence (P12821 640-1231): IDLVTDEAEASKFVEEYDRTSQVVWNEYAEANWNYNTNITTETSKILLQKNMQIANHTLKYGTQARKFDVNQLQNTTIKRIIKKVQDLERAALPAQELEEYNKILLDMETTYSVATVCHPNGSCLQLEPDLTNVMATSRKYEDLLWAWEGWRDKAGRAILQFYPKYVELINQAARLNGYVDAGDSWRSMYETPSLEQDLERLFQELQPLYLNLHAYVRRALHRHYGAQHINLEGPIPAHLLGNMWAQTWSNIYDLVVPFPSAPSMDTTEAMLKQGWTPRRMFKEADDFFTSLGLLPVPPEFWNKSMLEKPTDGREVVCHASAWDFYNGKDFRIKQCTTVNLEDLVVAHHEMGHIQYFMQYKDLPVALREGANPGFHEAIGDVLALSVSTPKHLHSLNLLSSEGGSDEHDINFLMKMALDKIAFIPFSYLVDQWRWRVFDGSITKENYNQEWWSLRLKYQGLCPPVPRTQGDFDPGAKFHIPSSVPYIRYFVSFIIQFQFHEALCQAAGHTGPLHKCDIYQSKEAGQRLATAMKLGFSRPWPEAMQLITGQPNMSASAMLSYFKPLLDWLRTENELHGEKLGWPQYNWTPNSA

C[C@H](CS)C(=O)N1CCC[C@H]1C(=O)O [Captopril, reference compound]
Inhibition rate (%) of ACE1 activity ([1]; captopril (positive control) at 1 uM): 101.5%

Oc1cc(O)c2c(c1)O[C@H](c1ccc(O)c(O)c1)[C@@H](O)C2 [Cianidanol]
Binding to sACE1 by SPR (in words) [2]: bound to sACE1 on the chip in a dose-dependent manner
pKd [2]: 4.32

O=c1cc(-c2ccc(O)c(O)c2)oc2cc(O)c([C@@H]3O[C@H](CO)[C@@H](O)[C@H](O)[C@H]3O)c(O)c12 [Homoorientin]
Binding to sACE1 by SPR (in words) [2]: bound to sACE1 on the chip in a dose-dependent manner
pKd [2]: 4.99

O=c1c(O[C@@H]2O[C@H](CO)[C@@H](O)[C@H](O)[C@H]2O)c(-c2ccc(O)c(O)c2)oc2cc(O)cc(O)c12 [Isoquercitrin]
Binding to sACE1 by SPR (in words) [2]: bound to sACE1 on the chip in a dose-dependent manner
pKd [2]: 5.24
Inhibition rate (%) of ACE1 activity, relative to captopril taken as 100% [1]: 35.6%

O=c1cc(-c2ccc(O)c(O)c2)oc2c([C@@H]3O[C@H](CO)[C@@H](O)[C@H](O)[C@H]3O)c(O)cc(O)c12 [Orientin]
Binding to sACE1 by SPR (in words) [2]: bound to sACE1 on the chip in a dose-dependent manner
pKd [2]: 5.03

O=c1c(-c2ccc(O)cc2)coc2c([C@@H]3O[C@H](CO)[C@@H](O)[C@H](O)[C@H]3O)c(O)ccc12 [Puerarin]
Binding to sACE1 by SPR (in words) [2]: bound to sACE1 on the chip in a dose-dependent manner
pKd [2]: 4.86

O=c1c(O)c(-c2ccc(O)c(O)c2)oc2cc(O)cc(O)c12 [Quercetin]
Binding to sACE1 by SPR (in words) [2]: bound to sACE1 on the chip in a dose-dependent manner

Oc1ccc(/C=C/c2cc(O)cc(O)c2)cc1 [Resveratrol]
ACE1 inhibition in vitro (in words) ([1]; enzyme activity test): did not inhibit ACE1 in vitro

Procyanidin
Binding to sACE1 by SPR (in words) [2]: bound to sACE1 on the chip in a dose-dependent manner
Inhibition rate (%) of ACE1 activity, relative to captopril taken as 100% [1]: 67.5%
